Assay results: patent US20090054435A1, “Phenoxyalkanoic Acid Compound” (priority 2005, published 2009)

Assays:
KKAy mice = assay: Blood glucose and blood lipid (triglyceride) lowering action in mice; assay type: in vivo; settings: 6 days; for hypoglycemic action (%): decrease rate of blood glucose vs non-administration group (100%); for hypolipidemic action (%): decrease rate of blood triglyceride vs non-administration group (100%)
Excerpt: The test compound was mixed with a powder diet (CE-2, CLEA JAPAN, INC.) at a proportion of 0.01% (0.03% for the compound of Example 1) and freely given to KKAy mice (9 to 12-week-old, 5 mice per group) which are obese non-insulin-dependent diabetes (type-2 diabetes) models, for 6 days. During this period, water was freely given to the mice. The blood was drawn from the orbital venous plexus. Glucose and triglyceride in the plasma separated from the blood were quantitated using L Type Wako Glu2 (Wako Pure Chemical Industries, Ltd.) and L Type Wako TG·H (Wako Pure Chemical Industries, Ltd.), respectively, according to an enzyme method.

PPAR γ-RXRα heterodimer = target: T1, PPAR γ-RXRα heterodimer (Homo sapiens, UniProt P37231); assay: PPAR γ-RXRα heterodimer ligand activity (luciferase reporter in PPAR γ:RXRα:4ERPP/CHO-K1 cells); assay type: cell-based; settings: for EC50: compound concentration showing 50% of the maximum induction rate of luciferase activity, 18-24 hr incubation; for Vmax (%): maximum luciferase induction relative to 5-{4-[2-(5-methyl-2-phenyl-1,3-oxazol-4-yl)ethoxy]benzyl}-1,3-thiazolidin-2,4-dione (PPARγ full agonist) as 100%
T1 construct: expressed in transfected cells; host or cells: CHO-K1 (PPAR γ:RXRα:4ERPP/CHO-K1)
T1 sequence (P37231 29-505 limits assumed): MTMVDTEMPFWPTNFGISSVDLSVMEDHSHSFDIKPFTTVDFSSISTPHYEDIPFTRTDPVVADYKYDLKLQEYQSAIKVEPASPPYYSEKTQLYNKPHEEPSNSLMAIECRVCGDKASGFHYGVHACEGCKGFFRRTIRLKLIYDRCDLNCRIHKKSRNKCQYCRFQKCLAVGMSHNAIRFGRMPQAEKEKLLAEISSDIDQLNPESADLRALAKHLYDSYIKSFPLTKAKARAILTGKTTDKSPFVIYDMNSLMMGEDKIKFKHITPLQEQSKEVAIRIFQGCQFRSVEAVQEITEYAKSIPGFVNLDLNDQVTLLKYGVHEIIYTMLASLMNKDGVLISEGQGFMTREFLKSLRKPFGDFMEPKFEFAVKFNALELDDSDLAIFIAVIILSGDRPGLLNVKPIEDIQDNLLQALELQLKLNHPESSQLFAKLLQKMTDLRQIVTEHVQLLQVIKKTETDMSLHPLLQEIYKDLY
T1 sequence (P19793 1-462 partner): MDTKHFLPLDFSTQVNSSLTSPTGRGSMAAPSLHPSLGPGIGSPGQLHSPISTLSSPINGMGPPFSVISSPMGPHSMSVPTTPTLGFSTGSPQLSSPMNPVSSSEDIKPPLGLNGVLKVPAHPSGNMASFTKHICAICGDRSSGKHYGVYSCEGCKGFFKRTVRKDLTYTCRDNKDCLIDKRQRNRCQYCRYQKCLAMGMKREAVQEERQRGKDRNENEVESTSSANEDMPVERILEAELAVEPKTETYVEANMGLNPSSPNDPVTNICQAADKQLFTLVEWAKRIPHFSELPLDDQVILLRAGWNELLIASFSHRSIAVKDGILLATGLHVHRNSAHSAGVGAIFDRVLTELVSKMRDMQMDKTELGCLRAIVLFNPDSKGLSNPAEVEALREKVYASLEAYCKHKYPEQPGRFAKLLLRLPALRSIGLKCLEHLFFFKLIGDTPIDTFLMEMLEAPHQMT
Description: The PPAR γ:RXRα:4ERPP/CHO-K1 cells described in WO03/099793 were cultured in a HamF12 medium [manufactured by Life Technologies, Inc., US] containing 10% calf fetal serum [manufactured by Life Technologies, Inc., US], sown in a 96-well white plate [manufactured by Corning Coster Corporation, US] at 2×10^4 cells/well, and incubated overnight in a carbon dioxide gas incubator at 37° C.
Then, the medium was removed from the 96 well white plate, 80 μl of HamF12 medium containing 0.1% fatty acid-free bovine serum albumin (BSA) and a test compound (20 μl) were added, and the cells were incubated for 18-24 hr in a carbon dioxide gas incubator at 37° C. The medium was removed, 40 μl of PicaGene7.5 (manufactured by Wako Pure Chemical Industries, Ltd.) 2-fold diluted with HBSS (HANKS' BALANCED SALT SOLUTION) [manufactured by BIO WHITTAKER, US] was added. After stirring, the luciferase activity was determined using the 1420 ARVO Multilabel Counter [manufactured by PerkinElmer, US].
The induction rate was calculated from the luciferase activity of each test compound based on the luciferase activity of the test compound non-administration group as 1. The test compound concentration and the induction rate were analyzed by PRISM [manufactured by GraphPad Software, Inc., US] to calculate EC50 value (compound concentration showing 50% of the maximum value of induction rate) of the test compound.
In addition, the luciferase activity induction magnification maximum value of each test compound relative to that of the 5-{4-[2-(5-methyl-2-phenyl-1,3-oxazol-4-yl)ethoxy]benzyl}-1,3-thiazolidin-2,4-dione (PPARγ full agonist) administration group as 100% was defined as Vmax and calculated.

[1] = 0.03% in powder diet (compound of Example 1)

| Structure (SMILES) | melting point [°C] | EC50 (PPAR γ-RXRα heterodimer) [µM] | Vmax (%) (PPAR γ-RXRα heterodimer) | also measured |
| --- | --- | --- | --- | --- |
| COc1ccc(C(=O)c2ccc(OCc3nc(-c4ccccc4)oc3C)nc2)c(OC(C)C(=O)O)c1 (stereo not shown) [Example 21, 2-[5-methoxy-2-({6-[(5-methyl-2-phenyl-1,3-oxazol-4-yl)methoxy]pyridin-3-yl}carbonyl)phenoxy]propanoic acid] | 162 to 163 | 0.0081 | 60 | hypoglycemic action (%) (KKAy mice; 0.01% in powder diet): 32%; hypolipidemic action (%) (KKAy mice; 0.01% in powder diet): 14% |
| COc1ccc(C(=O)c2ccc(OCc3nc(-c4ccccc4)sc3C)cc2)c(OC(C)(C)C(=O)O)c1 [Example 29, 2-(5-methoxy-2-{4-[(5-methyl-2-phenyl-1,3-thiazol-4-yl)methoxy]benzoyl}phenoxy)-2-methylpropanoic acid] | 145 to 147 | – | – | – |
| COc1ccc(C(=O)c2ccc(OCc3coc(-c4ccccc4)n3)cc2)c(OC(C)(C)C(=O)O)c1 [Example 32, 2-(5-methoxy-2-{4-[(2-phenyl-1,3-oxazol-4-yl)methoxy]benzoyl}phenoxy)-2-methylpropanoic acid] | 165 to 167 | – | – | – |
| COc1ccc(C(=O)c2ccc(OCc3nc(-c4cccc(OS(C)(=O)=O)c4)oc3C)cc2)c(OC(C)(C)C(=O)O)c1 [Example 37, 2-{5-methoxy-2-[4-({5-methyl-2-[3-(methanesulfonyloxy)phenyl]-1,3-oxazol-4-yl}methoxy)benzoyl]phenoxy}-2-methylpropanoic acid] | 182 to 183 | – | – | – |
| COc1cc(C)c(C(=O)c2ccc(OCc3nc(-c4ccccc4)oc3C)cc2)c(O[C@H](C)C(=O)O)c1 [Example 42, (2R)-2-(5-methoxy-3-methyl-2-{4-[(5-methyl-2-phenyl-1,3-oxazol-4-yl)methoxy]benzoyl}phenoxy)propanoic acid] | 122 to 123 | 0.001 | 73 | – |
| COc1ccc(C(=O)c2ccc(OCc3ccccc3)nc2)c(OC(C)(C)C(=O)OC(C)(C)C)c1 [Example 45, tert-butyl 2-(2-{[6-(benzyloxy)pyridin-3-yl]carbonyl}-5-methoxyphenoxy)-2-methylpropanoate] | 58 to 60 | – | – | – |
| COc1ccc(C(=O)c2ccc(Oc3ccccc3)nc2)c(OC(C)(C)C(=O)O)c1 [Example 51, 2-{5-methoxy-2-[(6-phenoxypyridin-3-yl)carbonyl]phenoxy}-2-methylpropanoic acid] | 167.5 to 168.5 | – | – | – |
| COc1ccc(C(=O)c2ccc(OCc3nc(-c4ccccc4)oc3C)nc2)c(O[C@H](C)C(=O)O)c1 [Example 54, (2R)-2-[5-methoxy-2-({6-[(5-methyl-2-phenyl-1,3-oxazol-4-yl)methoxy]pyridin-3-yl}carbonyl)phenoxy]propanoic acid] | 164.5 to 165.5 | – | – | – |
| COc1ccc(C(=O)c2ccc(OCCc3nc(-c4ccccc4)oc3C)nc2)c(O[C@H](C)C(=O)O)c1 [Example 55, (2R)-2-[5-methoxy-2-({6-[2-(5-methyl-2-phenyl-1,3-oxazol-4-yl)ethoxy]pyridin-3-yl}carbonyl)phenoxy]propanoic acid] | – | 0.015 | 44 | – |

Further lines, with some results ahead:

| melting point [°C] | EC50 (PPAR γ-RXRα heterodimer) [µM] | Vmax (%) (PPAR γ-RXRα heterodimer) | Structure (SMILES) | also measured |
| --- | --- | --- | --- | --- |
| 146 to 147 | 0.1 | 57 | COc1ccc(C(=O)c2ccc(OCc3nc(-c4ccccc4)oc3C)cc2)c(OCC(=O)O)c1 [Example 1, (5-methoxy-2-{4-[(5-methyl-2-phenyl-1,3-oxazol-4-yl)methoxy]benzoyl}phenoxy)acetic acid] | hypoglycemic action (%) (KKAy mice; [1]): 54%; hypolipidemic action (%) (KKAy mice; [1]): 44% |
| 175 to 177 | 0.015 | 61 | COc1ccc(C(=O)c2ccc(OCc3nc(-c4ccccc4)oc3C)cc2)c(OC(C)(C)C(=O)O)c1 [Example 14, 2-(5-methoxy-2-{4-[(5-methyl-2-phenyl-1,3-oxazol-4-yl)methoxy]benzoyl}phenoxy)-2-methylpropanoic acid] | hypoglycemic action (%) (KKAy mice; 0.01% in powder diet): 38%; hypolipidemic action (%) (KKAy mice; 0.01% in powder diet): 29% |
| 186 to 187 | 0.033 | 70 | Cc1oc(-c2ccccc2)nc1COc1ccc(C(=O)c2ccccc2OC(C)C(=O)O)cc1 (stereo not shown) [Example 22, 2-(2-{4-[(5-methyl-2-phenyl-1,3-oxazol-4-yl)methoxy]benzoyl}phenoxy)propanoic acid] | hypoglycemic action (%) (KKAy mice; 0.01% in powder diet): 41%; hypolipidemic action (%) (KKAy mice; 0.01% in powder diet): 48% |
| 199 to 201 | – | – | COc1ccc(C(=O)c2ccc(OCc3nc(-c4ccccc4)oc3C)cc2)c(OC2(C(=O)O)CCC2)c1 [Example 23, 1-(5-methoxy-2-{4-[(5-methyl-2-phenyl-1,3-oxazol-4-yl)methoxy]benzoyl}phenoxy)cyclobutanecarboxylic acid] | – |
| 81 to 82 | – | – | COc1ccc(C(=O)c2ccc(OCCc3nc(-c4ccccc4)oc3C)cc2)c(OC(C)(C)C(=O)O)c1 [Example 38, 2-(5-methoxy-2-{4-[2-(5-methyl-2-phenyl-1,3-oxazol-4-yl)ethoxy]benzoyl}phenoxy)-2-methylpropanoic acid] | – |
| 119 to 120 | – | – | COc1ccc(O[C@H](C)C(=O)O)c(C(=O)c2ccc(OCc3nc(-c4ccccc4)oc3C)cc2)c1 [Example 39, (2R)-2-(4-methoxy-2-{4-[(5-methyl-2-phenyl-1,3-oxazol-4-yl)methoxy]benzoyl}phenoxy)propanoic acid] | – |
| 169 to 170 | 0.0051 | 60 | COc1ccc(C(=O)c2ccc(OCc3nc(-c4ccccc4)oc3C)cc2)c(O[C@H](C)C(=O)O)c1 [Example 53, (2R)-2-(5-methoxy-2-{4-[(5-methyl-2-phenyl-1,3-oxazol-4-yl)methoxy]benzoyl}phenoxy)propanoic acid] | hypoglycemic action (%) (KKAy mice; 0.01% in powder diet): 46%; hypolipidemic action (%) (KKAy mice; 0.01% in powder diet): 12% |
| 169 to 170 | – | – | COc1ccc(C(=O)c2ccc(OCc3nc(-c4ccccc4)oc3C)cc2)c(O[C@@H](C)C(=O)O)c1 [Example 57, (2S)-2-(5-methoxy-2-{4-[(5-methyl-2-phenyl-1,3-oxazol-4-yl)methoxy]benzoyl}phenoxy)propanoic acid] | – |
